Experimental data: patent US20260130395A1, “Water Dispersible Botanical Compositions” (Aquila Black Limited, priority 2021, published 2026)

Key:
[1] = Stability of cannabinoid compounds and Vitamin E components in Beverage 1 (AB White) by LCMSMS; assay type: physicochemical; details: for Stability of Plant-Derived Cannabinoid Compounds in AB White, 8° C.: AB White stored at 8° C.; for Stability of Plant-Derived Cannabinoid Compounds in AB White, 21-25° C.: AB White stored at 21-25° C.
[2] = Stability of cannabinoid entourage and Vitamin E components of the powder concentrate by LCMSMS; assay type: physicochemical; details: powder stored at 21-25° C.
Experimental: At each time period, 0.05 g of powder was dissolved in 10 ml-15 of ethanol, diluted to fall within the analytical range, and injected into the LCMSMS for analysis.

With `CCCCCc1cc(O)c2c(c1)OC(C)(CCC=C(C)C)C=C2` (stereo not drawn) [CBC, cannabichromene] the “Stability of Plant-Derived Cannabinoid Compounds in AB White, 8° C.” value (from here on “Stability … 8° C.”) ([1]; 0 days) was 0.320 µg/mL, the “Stability … 8° C.” value ([1]; 1 days) was 0.314 µg/mL and the “Stability … 8° C.” value ([1]; 2 days) was 0.315 µg/mL. For the same compound, the “Stability … 8° C.” value ([1]; 3 days) was 0.322 µg/mL, the “Stability … 8° C.” value ([1]; 5 days) was 0.322 µg/mL and the “Stability … 8° C.” value ([1]; 8 days) was 0.318 µg/mL. For the same compound, the “Stability … 8° C.” value ([1]; 9 days) was 0.319 µg/mL, the “Stability … 8° C.” value ([1]; 10 days) was 0.314 µg/mL and the “Stability … 8° C.” value ([1]; 11 days) was 0.314 µg/mL. For the same compound, the “Stability … 8° C.” value ([1]; 12 days) was 0.319 µg/mL, the “Stability … 8° C.” value ([1]; 15 days) was 0.317 µg/mL and the “Stability … 8° C.” value ([1]; 16 days) was 0.320 µg/mL. The “Stability … 8° C.” value ([1]; 17 days) was 0.315 µg/mL, the “Stability … 8° C.” value ([1]; 18 days) was 0.312 µg/mL and the “Stability … 8° C.” value ([1]; 19 days) was 0.317 µg/mL. For the same compound, the “Stability … 8° C.” value ([1]; 22 days) was 0.315 µg/mL, the “Stability … 8° C.” value ([1]; 23 days) was 0.321 µg/mL and the “Stability … 8° C.” value ([1]; 24 days) was 0.316 µg/mL. The “Stability … 8° C.” value ([1]; 25 days) was 0.310 µg/mL, the “Stability … 8° C.” value ([1]; 26 days) was 0.316 µg/mL and the “Stability … 8° C.” value ([1]; 29 days) was 0.321 µg/mL. For the same compound, the “Stability … 8° C.” value ([1]; 30 days) was 0.31 µg/mL, the “Stability … 8° C.” value ([1]; 60 days) was 0.316 µg/mL and the “Stability … 8° C.” value ([1]; 90 days) was 0.318 µg/mL. The “Stability … 8° C.” value ([1]; 120 days) was 0.311 µg/mL, the “Stability … 8° C.” value ([1]; 150 days) was 0.314 µg/mL and the “Stability … 8° C.” value ([1]; 180 days) was 0.319 µg/mL. The “Stability … 8° C.” value ([1]; 210 days) was 0.309 µg/mL, the “Stability … 8° C.” value ([1]; 240 days) was 0.316 µg/mL and the “Stability … 8° C.” value ([1]; 270 days) was 0.316 µg/mL. For the same compound, the “Stability … 8° C.” value ([1]; 300 days) was 0.313 µg/mL, the “Stability … 8° C.” value ([1]; 330 days) was 0.316 µg/mL and the “Stability … 8° C.” value ([1]; 360 days) was 0.306 µg/mL. For the same compound, the “Stability … 8° C.” value ([1]; 390 days) was 0.310 µg/mL, the “Stability … 8° C.” value ([1]; 420 days) was 0.307 µg/mL and the “Stability … 8° C.” value ([1]; 450 days) was 0.312 µg/mL. The “Stability … 8° C.” value ([1]; 480 days) was 0.305 µg/mL, the “Stability … 8° C.” value ([1]; 510 days) was 0.295 µg/mL and the “Stability … 8° C.” value ([1]; 540 days) was 0.299 µg/mL. The “Stability … 8° C.” value ([1]; 570 days) was 0.293 µg/mL, the “Stability of Plant-Derived Cannabinoid Compounds in AB White, 21-25° C.” value (shortened to “Stability … 21-25° C.”) ([1]; 0 days) was 0.320 µg/mL and the “Stability … 21-25° C.” value ([1]; 1 days) was 0.313 µg/mL. The “Stability … 21-25° C.” value ([1]; 2 days) was 0.318 µg/mL, the “Stability … 21-25° C.” value ([1]; 3 days) was 0.311 µg/mL and the “Stability … 21-25° C.” value ([1]; 5 days) was 0.323 µg/mL. For the same compound, the “Stability … 21-25° C.” value ([1]; 8 days) was 0.319 µg/mL, the “Stability … 21-25° C.” value ([1]; 9 days) was 0.307 µg/mL and the “Stability … 21-25° C.” value ([1]; 10 days) was 0.312 µg/mL. For the same compound, the “Stability … 21-25° C.” value ([1]; 11 days) was 0.311 µg/mL, the “Stability … 21-25° C.” value ([1]; 12 days) was 0.316 µg/mL and the “Stability … 21-25° C.” value ([1]; 15 days) was 0.311 µg/mL. The “Stability … 21-25° C.” value ([1]; 16 days) was 0.321 µg/mL, the “Stability … 21-25° C.” value ([1]; 17 days) was 0.323 µg/mL and the “Stability … 21-25° C.” value ([1]; 18 days) was 0.313 µg/mL. The “Stability … 21-25° C.” value ([1]; 19 days) was 0.316 µg/mL, the “Stability … 21-25° C.” value ([1]; 22 days) was 0.322 µg/mL and the “Stability … 21-25° C.” value ([1]; 23 days) was 0.316 µg/mL. For the same compound, the “Stability … 21-25° C.” value ([1]; 24 days) was 0.308 µg/mL, the “Stability … 21-25° C.” value ([1]; 25 days) was 0.310 µg/mL and the “Stability … 21-25° C.” value ([1]; 26 days) was 0.308 µg/mL. The “Stability … 21-25° C.” value ([1]; 29 days) was 0.317 µg/mL, the “Stability … 21-25° C.” value ([1]; 30 days) was 0.317 µg/mL and the “Stability … 21-25° C.” value ([1]; 60 days) was 0.306 µg/mL. For the same compound, the “Stability … 21-25° C.” value ([1]; 90 days) was 0.305 µg/mL, the “Stability … 21-25° C.” value ([1]; 120 days) was 0.318 µg/mL and the “Stability … 21-25° C.” value ([1]; 150 days) was 0.312 µg/mL. For the same compound, the “Stability … 21-25° C.” value ([1]; 180 days) was 0.315 µg/mL, the “Stability … 21-25° C.” value ([1]; 210 days) was 0.307 µg/mL and the “Stability … 21-25° C.” value ([1]; 240 days) was 0.304 µg/mL. For the same compound, the “Stability … 21-25° C.” value ([1]; 270 days) was 0.316 µg/mL, the “Stability … 21-25° C.” value ([1]; 300 days) was 0.312 µg/mL and the “Stability … 21-25° C.” value ([1]; 330 days) was 0.312 µg/mL. The “Stability … 21-25° C.” value ([1]; 360 days) was 0.310 µg/mL, the “Stability … 21-25° C.” value ([1]; 390 days) was 0.303 µg/mL and the “Stability … 21-25° C.” value ([1]; 420 days) was 0.312 µg/mL. The “Stability … 21-25° C.” value ([1]; 450 days) was 0.310 µg/mL, the “Stability … 21-25° C.” value ([1]; 480 days) was 0.294 µg/mL and the “Stability … 21-25° C.” value ([1]; 510 days) was 0.293 µg/mL. The “Stability … 21-25° C.” value ([1]; 540 days) was 0.294 µg/mL, the “Stability … 21-25° C.” value ([1]; 570 days) was 0.295 µg/mL and the “Stability of Plant-Derived Cannabinoid Compounds in Powder Concentrate” value (“Stability … in Powder Concentrate” below) ([2]; 0 days) was 0.070 mg/g powder. For the same compound, the “Stability … in Powder Concentrate” value ([2]; 1 days) was 0.072 mg/g powder, the “Stability … in Powder Concentrate” value ([2]; 2 days) was 0.071 mg/g powder and the “Stability … in Powder Concentrate” value ([2]; 3 days) was 0.073 mg/g powder. The “Stability … in Powder Concentrate” value ([2]; 5 days) was 0.070 mg/g powder, the “Stability … in Powder Concentrate” value ([2]; 8 days) was 0.071 mg/g powder and the “Stability … in Powder Concentrate” value ([2]; 9 days) was 0.068 mg/g powder. For the same compound, the “Stability … in Powder Concentrate” value ([2]; 10 days) was 0.071 mg/g powder, the “Stability … in Powder Concentrate” value ([2]; 11 days) was 0.071 mg/g powder and the “Stability … in Powder Concentrate” value ([2]; 12 days) was 0.069 mg/g powder. For the same compound, the “Stability … in Powder Concentrate” value ([2]; 15 days) was 0.073 mg/g powder, the “Stability … in Powder Concentrate” value ([2]; 16 days) was 0.073 mg/g powder and the “Stability … in Powder Concentrate” value ([2]; 17 days) was 0.070 mg/g powder. For the same compound, the “Stability … in Powder Concentrate” value ([2]; 18 days) was 0.072 mg/g powder, the “Stability … in Powder Concentrate” value ([2]; 19 days) was 0.070 mg/g powder and the “Stability … in Powder Concentrate” value ([2]; 22 days) was 0.071 mg/g powder. The “Stability … in Powder Concentrate” value ([2]; 23 days) was 0.069 mg/g powder, the “Stability … in Powder Concentrate” value ([2]; 24 days) was 0.068 mg/g powder and the “Stability … in Powder Concentrate” value ([2]; 25 days) was 0.072 mg/g powder. The “Stability … in Powder Concentrate” value ([2]; 26 days) was 0.071 mg/g powder, the “Stability … in Powder Concentrate” value ([2]; 29 days) was 0.069 mg/g powder and the “Stability … in Powder Concentrate” value ([2]; 30 days) was 0.072 mg/g powder. For the same compound, the “Stability … in Powder Concentrate” value ([2]; 60 days) was 0.068 mg/g powder, the “Stability … in Powder Concentrate” value ([2]; 90 days) was 0.068 mg/g powder and the “Stability … in Powder Concentrate” value ([2]; 120 days) was 0.072 mg/g powder. The “Stability … in Powder Concentrate” value ([2]; 150 days) was 0.072 mg/g powder, the “Stability … in Powder Concentrate” value ([2]; 180 days) was 0.071 mg/g powder and the “Stability … in Powder Concentrate” value ([2]; 210 days) was 0.072 mg/g powder. The “Stability … in Powder Concentrate” value ([2]; 240 days) was 0.068 mg/g powder, the “Stability … in Powder Concentrate” value ([2]; 270 days) was 0.072 mg/g powder and the “Stability … in Powder Concentrate” value ([2]; 300 days) was 0.071 mg/g powder. The “Stability … in Powder Concentrate” value ([2]; 330 days) was 0.069 mg/g powder, the “Stability … in Powder Concentrate” value ([2]; 360 days) was 0.068 mg/g powder and the “Stability … in Powder Concentrate” value ([2]; 390 days) was 0.068 mg/g powder. For the same compound, the “Stability … in Powder Concentrate” value ([2]; 420 days) was 0.069 mg/g powder, the “Stability … in Powder Concentrate” value ([2]; 450 days) was 0.073 mg/g powder and the “Stability … in Powder Concentrate” value ([2]; 480 days) was 0.071 mg/g powder. For the same compound, the “Stability … in Powder Concentrate” value ([2]; 510 days) was 0.069 mg/g powder, the “Stability … in Powder Concentrate” value ([2]; 540 days) was 0.070 mg/g powder and the “Stability … in Powder Concentrate” value ([2]; 570 days) was 0.069 mg/g powder.
